Reference: ChEMBL document CHEMBL1145498, “A systematic interaction map of validated kinase inhibitors with Ser/Thr kinases” (Proc Natl Acad Sci U S A, 2007)

Key:
[1] = molecular target: T1, Myotonin-protein kinase (Homo sapiens) (UniProt Q09013)
T1 sequence (whole entry): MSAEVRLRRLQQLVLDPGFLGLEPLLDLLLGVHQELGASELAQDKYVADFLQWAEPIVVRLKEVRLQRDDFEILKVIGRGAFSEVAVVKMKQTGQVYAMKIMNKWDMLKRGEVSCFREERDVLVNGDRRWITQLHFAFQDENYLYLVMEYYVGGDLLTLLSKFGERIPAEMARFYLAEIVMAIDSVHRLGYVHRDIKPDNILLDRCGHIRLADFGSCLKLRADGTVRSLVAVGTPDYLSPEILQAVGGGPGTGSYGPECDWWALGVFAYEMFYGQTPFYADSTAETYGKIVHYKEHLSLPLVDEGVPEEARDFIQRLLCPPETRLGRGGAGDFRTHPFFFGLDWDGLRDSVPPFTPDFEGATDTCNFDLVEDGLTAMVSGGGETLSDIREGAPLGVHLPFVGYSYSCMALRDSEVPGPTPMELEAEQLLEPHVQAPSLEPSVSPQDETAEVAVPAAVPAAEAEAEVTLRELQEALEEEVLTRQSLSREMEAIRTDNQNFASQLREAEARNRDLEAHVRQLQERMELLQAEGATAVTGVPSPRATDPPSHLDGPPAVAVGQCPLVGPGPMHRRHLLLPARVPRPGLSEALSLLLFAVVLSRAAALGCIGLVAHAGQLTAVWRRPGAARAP

[2] = molecular target: Mitogen-activated protein kinase 11 (Homo sapiens, UniProt Q15759)
Chain of Mitogen-activated protein kinase 11 (Q15759 whole entry): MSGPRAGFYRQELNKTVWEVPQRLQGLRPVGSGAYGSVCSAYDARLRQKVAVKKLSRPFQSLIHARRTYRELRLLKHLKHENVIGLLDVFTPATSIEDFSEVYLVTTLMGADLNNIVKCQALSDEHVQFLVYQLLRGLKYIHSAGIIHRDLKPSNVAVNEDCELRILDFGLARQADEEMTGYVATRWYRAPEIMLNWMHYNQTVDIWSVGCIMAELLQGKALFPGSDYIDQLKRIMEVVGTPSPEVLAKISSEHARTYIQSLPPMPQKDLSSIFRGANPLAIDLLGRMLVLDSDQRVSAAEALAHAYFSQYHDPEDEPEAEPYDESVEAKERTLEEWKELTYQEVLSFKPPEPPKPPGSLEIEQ

[3] = molecular target: Serine/threonine-protein kinase PAK 6 (Homo sapiens) (UniProt Q9NQU5)
Chain of Serine/threonine-protein kinase PAK 6 (Homo sapiens) (Q9NQU5 whole entry, looked up): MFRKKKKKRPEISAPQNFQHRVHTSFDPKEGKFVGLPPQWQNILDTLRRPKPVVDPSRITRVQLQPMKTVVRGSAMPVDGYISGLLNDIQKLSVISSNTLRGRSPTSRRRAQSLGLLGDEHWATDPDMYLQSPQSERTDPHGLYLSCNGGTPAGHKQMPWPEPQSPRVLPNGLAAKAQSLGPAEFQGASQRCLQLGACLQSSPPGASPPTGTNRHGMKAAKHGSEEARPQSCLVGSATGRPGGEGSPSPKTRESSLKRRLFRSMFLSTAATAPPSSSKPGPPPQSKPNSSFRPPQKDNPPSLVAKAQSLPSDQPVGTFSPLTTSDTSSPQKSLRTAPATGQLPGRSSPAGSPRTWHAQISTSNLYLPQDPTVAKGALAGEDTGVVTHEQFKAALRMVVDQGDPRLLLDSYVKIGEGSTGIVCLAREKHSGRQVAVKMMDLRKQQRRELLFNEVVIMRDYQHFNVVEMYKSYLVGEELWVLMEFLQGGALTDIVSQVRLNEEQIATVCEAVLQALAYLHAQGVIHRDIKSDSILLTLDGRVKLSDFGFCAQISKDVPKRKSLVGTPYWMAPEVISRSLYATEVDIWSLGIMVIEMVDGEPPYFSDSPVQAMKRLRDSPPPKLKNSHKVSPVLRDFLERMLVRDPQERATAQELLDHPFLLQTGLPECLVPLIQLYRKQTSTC

[4] = molecular target: Serine/threonine-protein kinase Nek6 (Homo sapiens) (UniProt Q9HC98)
Chain of Serine/threonine-protein kinase Nek6 (Homo sapiens) (Q9HC98 whole entry): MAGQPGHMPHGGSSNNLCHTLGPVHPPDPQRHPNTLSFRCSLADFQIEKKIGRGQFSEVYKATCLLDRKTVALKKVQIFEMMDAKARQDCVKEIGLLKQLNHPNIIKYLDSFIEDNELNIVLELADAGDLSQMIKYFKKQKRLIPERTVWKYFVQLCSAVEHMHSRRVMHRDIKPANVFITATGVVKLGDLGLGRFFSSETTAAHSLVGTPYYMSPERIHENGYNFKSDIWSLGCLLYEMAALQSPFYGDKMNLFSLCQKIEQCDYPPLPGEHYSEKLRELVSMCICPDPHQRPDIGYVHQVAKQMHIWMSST

[5] = molecular target: T2, Serine/threonine-protein kinase 17A (Homo sapiens) (UniProt Q9UEE5)
T2 sequence (whole entry): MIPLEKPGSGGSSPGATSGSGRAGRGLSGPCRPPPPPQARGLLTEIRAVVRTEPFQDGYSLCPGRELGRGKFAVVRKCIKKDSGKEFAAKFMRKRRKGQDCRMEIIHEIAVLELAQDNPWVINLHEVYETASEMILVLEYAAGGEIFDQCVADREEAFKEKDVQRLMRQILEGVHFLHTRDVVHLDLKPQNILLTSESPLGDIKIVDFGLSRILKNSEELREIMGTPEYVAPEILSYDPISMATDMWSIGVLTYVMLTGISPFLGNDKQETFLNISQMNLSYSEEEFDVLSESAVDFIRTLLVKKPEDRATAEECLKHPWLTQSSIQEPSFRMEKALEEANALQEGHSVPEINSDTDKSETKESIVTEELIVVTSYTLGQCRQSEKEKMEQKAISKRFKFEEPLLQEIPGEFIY

[6] = molecular target: T3, Serine/threonine-protein kinase PLK4 (Homo sapiens) (UniProt O00444)
T3 sequence (whole entry): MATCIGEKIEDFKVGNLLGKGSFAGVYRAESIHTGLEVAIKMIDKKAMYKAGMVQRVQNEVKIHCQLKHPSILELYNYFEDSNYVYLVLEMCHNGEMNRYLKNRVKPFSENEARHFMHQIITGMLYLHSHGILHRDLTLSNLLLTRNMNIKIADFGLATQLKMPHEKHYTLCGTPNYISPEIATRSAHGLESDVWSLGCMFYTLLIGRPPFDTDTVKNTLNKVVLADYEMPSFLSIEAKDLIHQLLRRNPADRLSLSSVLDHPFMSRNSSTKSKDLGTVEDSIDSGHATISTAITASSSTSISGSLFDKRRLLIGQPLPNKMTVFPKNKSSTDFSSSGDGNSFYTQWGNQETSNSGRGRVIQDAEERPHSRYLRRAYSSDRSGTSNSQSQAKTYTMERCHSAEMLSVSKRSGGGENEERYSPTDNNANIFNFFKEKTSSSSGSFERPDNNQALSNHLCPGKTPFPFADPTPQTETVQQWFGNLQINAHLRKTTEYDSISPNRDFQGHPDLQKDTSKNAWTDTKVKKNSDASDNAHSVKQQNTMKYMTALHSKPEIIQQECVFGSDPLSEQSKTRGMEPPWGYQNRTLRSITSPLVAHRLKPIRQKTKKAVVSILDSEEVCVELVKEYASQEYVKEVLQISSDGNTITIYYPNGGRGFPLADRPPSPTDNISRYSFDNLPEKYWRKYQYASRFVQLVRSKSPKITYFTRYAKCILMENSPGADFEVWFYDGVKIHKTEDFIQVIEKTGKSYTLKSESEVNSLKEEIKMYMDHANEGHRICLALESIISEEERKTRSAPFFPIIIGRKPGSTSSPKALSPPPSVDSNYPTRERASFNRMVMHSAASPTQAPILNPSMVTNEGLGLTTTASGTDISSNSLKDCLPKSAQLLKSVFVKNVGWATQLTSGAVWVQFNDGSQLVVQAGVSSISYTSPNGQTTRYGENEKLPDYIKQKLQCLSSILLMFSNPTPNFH

[7] = molecular target: T4, 3-phosphoinositide-dependent protein kinase 1 (Homo sapiens) (UniProt O15530)
T4 sequence (whole entry): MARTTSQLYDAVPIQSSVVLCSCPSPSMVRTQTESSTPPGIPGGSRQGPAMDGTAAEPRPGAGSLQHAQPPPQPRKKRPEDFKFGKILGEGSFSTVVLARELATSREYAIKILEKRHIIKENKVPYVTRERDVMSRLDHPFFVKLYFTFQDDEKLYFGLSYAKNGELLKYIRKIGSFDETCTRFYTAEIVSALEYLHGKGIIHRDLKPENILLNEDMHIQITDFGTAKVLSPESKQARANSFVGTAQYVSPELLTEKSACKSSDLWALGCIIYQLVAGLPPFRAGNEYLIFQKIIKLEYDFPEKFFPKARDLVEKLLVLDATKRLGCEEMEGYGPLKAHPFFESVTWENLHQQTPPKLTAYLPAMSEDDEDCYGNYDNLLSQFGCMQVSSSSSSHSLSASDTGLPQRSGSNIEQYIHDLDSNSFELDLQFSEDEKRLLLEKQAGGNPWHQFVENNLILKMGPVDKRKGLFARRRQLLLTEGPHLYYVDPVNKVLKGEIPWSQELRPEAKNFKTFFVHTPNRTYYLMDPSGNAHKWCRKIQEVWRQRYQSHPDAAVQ

[8] = molecular target: Serine/threonine-protein kinase 26 (Homo sapiens) (UniProt Q9P289)
Chain of Serine/threonine-protein kinase 26 (Homo sapiens) (Q9P289 2-416 limits assumed): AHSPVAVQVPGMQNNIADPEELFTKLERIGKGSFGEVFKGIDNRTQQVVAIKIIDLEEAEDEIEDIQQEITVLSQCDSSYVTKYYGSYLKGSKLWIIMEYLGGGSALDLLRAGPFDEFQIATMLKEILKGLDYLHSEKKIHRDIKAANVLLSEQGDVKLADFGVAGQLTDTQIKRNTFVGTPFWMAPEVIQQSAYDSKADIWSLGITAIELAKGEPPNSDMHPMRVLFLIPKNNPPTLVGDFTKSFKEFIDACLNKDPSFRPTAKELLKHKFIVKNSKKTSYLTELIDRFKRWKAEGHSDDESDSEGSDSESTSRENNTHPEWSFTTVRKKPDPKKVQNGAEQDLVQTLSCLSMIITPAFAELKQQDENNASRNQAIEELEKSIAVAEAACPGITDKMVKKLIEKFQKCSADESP

[9] = molecular target: Serine/threonine-protein kinase VRK2 (Homo sapiens) (UniProt Q86Y07)
Chain of Serine/threonine-protein kinase VRK2 (Homo sapiens) (Q86Y07 whole entry): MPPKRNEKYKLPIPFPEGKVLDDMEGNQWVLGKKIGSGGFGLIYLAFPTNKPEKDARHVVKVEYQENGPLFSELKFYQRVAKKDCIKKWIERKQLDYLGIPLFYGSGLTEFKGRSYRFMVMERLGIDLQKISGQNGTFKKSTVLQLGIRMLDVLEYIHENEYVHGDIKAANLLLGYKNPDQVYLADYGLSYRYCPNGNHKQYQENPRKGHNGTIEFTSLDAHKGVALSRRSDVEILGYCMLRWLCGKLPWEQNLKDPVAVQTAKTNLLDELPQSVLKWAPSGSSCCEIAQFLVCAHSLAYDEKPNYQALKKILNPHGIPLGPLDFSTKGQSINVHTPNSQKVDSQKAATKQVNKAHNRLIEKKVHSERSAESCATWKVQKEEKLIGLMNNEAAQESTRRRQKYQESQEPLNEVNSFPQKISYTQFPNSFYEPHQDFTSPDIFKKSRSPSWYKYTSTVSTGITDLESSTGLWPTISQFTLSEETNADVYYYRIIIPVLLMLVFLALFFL

[10] = molecular target: cAMP-dependent protein kinase catalytic subunit alpha (Homo sapiens) (UniProt P17612)
[11] = molecular target: Dual specificity protein kinase CLK2 (Homo sapiens) (UniProt P49760)
Chain of Dual specificity protein kinase CLK2 (Homo sapiens) (P49760 whole entry, looked up): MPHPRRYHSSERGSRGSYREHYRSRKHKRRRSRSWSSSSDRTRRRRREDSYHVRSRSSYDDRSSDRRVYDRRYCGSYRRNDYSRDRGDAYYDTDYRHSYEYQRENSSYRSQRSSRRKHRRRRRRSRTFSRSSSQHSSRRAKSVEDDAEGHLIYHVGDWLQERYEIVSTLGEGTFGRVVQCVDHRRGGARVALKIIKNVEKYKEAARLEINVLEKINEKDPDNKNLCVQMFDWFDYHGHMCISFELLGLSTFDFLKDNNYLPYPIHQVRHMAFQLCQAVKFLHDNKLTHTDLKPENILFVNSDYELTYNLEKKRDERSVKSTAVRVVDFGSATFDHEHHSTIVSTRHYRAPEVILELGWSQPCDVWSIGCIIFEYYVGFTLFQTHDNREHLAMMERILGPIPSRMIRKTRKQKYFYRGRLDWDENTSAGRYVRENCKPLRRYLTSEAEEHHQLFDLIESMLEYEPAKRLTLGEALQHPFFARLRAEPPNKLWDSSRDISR

SMILES | ΔTm [1] [°C] | ΔTm [2] [°C] | ΔTm [3] [°C] | ΔTm [4] [°C] | ΔTm [5] [°C] | ΔTm [6] [°C] | ΔTm [7] [°C] | ΔTm [8] [°C] | ΔTm [9] [°C] | ΔTm [10] [°C] | ΔTm [11] [°C]
O=C1NC(=O)c2c1c1c3ccccc3n3c1c1c2c2ccccc2n1C1CCC3O1 | 6.8 | -0.1 | 1.5 | -0.3 | -0.4 | 0 | -0.1 | -0.6 | 0.1 | 0.3 | 1.7
CCN(CC)CCNC(=O)c1c(C)[nH]c(/C=C2\C(=O)Nc3ccc(Cl)cc32)c1C [SU-11652] | 2.9 | -0.4 | 4.4 | -0.8 | 11 | 7.8 | -0.7 | 5.8 | 0.7 | 2 | 5.8
Cc1cc(C=C2C(=O)C=CC2=O)cc(C)c1O | 0.3 | 2.3 | -2.6 | -0.4 | -4.6 | 1.3 | -0.4 | -0.1 | 0.2 | 0.5 | -0.8
N#CC(C#N)=Cc1ccc(O)c(O)c1 [TYRPHOSTIN 23] | 0 | 0.3 | -0.2 | 0.6 | 0.9 | 0.7 | 0.2 | 0.1 | 0.2 | 0.6 | 0.1
CN(C)c1ncnc2nc[nH]c12 [DIMETHYLADENINE] | 0.8 | 0.1 | -0.3 | 0 | 1.5 | 1.3 | 0.1 | 0 | 0 | 0.7 | 0.9
CC(C)(C)n1nc(-c2cccc3ccccc23)c2c(N)ncnc21 | 2.5 | 2.9 | 0.3 | 0.1 | 2 | 1.1 | -0.4 | 1.1 | 2.8 | 2.1 | 0.8
COc1cccc(-c2cc(=O)c3ccccc3o2)c1N | -0.2 | 0.2 | 0.4 | -0.1 | 0.7 | 0.2 | -0.2 | -0.3 | 0.2 | 0.3 | 0
COc1cc(C[C@H]2C(=O)OC[C@@H]2Cc2ccc(OC)c(OC)c2)ccc1O [ARCTIGENIN] | 1.4 | -0.2 | 0.1 | -0.7 | 1.4 | 0 | 0 | 0.2 | 0.5 | 0.2 | -0.1
O=C1NC(=O)C(c2cn(CCCn3ccnc3)c3ccccc23)=C1Nc1ccccc1 | 4.5 | 0 | -0.4 | -0.1 | 0.5 | 0.8 | 0.1 | 3.1 | 0.4 | 0.3 | 4.3
O=C1Nc2ccccc2/C1=C/c1cnc[nH]1 | 0.8 | 0.4 | 1.9 | 0 | 9 | 5.8 | 1.3 | 4.5 | 2.1 | 1.6 | 2.5
O=C(O)c1cc(N(Cc2ccccc2O)Cc2cc(O)ccc2O)ccc1O [LAVENDUSTIN A] | 0.9 | 0.3 | -0.3 | 0.4 | 0.1 | 1.1 | 0.6 | 0.4 | -0.6 | 1.2 | 0.5
O=C1Cc2c([nH]c3ccc(Br)cc23)-c2ccccc2N1 [KENPAULLONE] | 5.8 | 0.2 | 3.7 | 0.4 | 5.9 | 7.1 | -0.8 | 1.5 | 0.2 | 1 | 0.1
CC(=O)O/N=C1/C(=C2/C(=O)Nc3cc(Br)ccc32)Nc2ccccc21 [6-BROMOINDIRUBIN-3'-ACETOXIME] | 0.7 | 1.1 | 0.3 | 0.7 | 3 | 6.7 | 0.8 | 0.1 | 0.6 | 3 | 2.3
CC(C)n1cnc2/c(=N/c3cccc(Cl)c3)nc(NCCO)[nH]c21 | 0.1 | -0.1 | 3.8 | 0.1 | 1.4 | 1.3 | 0 | 0.9 | 2.5 | 1.4 | 4.5
CCCCc1c(-c2ccc(O)cc2)[nH]c2nccnc12 [ALOISINE A] | 6.1 | 1 | 0.5 | 2.9 | 2.9 | 3.4 | 4 | 4.1 | 4.2 | 3.8 | 1.9
NC1=N/C(=C2/CCNC(=O)c3[nH]ccc32)C(=O)N1 [DEBROMOHYMENIALDISINE] | 2.3 | -0.4 | 0.1 | -0.5 | 10.2 | 0.9 | 0 | 0.7 | 0.7 | 0 | 3.7
